Some test systems named below: M19-MEL melanoma; SK-MEL-5 melanoma; A498 renal; HCC-2998 colon; OVCAR-4 ovarian; K-562 leukemia; KM20L2 colon; DU-145 prostate; MCF7 breast; MDA-MB-435.
What all share (assay): NCI anticancer screen, dose series, 48 h

This note sets out measurements from PubChem BioAssay (NCI).

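Results reflect a 48-hour exposure of cells in 96-well plates to compound at five concentrations. Abbreviation: GI50, concentration required for 50% inhibition of growth. Definition used: TGI = concentration required for complete inhibition of growth.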 Bounds are passed on as bounds.

Take `CN(C)CCNC(=O)c1cccc2nc3ccc4cccnc4c3nc12`: the TGI was determined as 1.62 µM with M19-MEL melanoma; 1.33 µM in the assay with SK-MEL-5 melanoma; 0.845 µM with A498 renal; 2.12 µM with HCC-2998 colon; 3.21 µM in the assay with OVCAR-4 ovarian; 13.4 µM in the assay with K-562 leukemia.
As to `CC(C)(CN1CCOCC1)C(=O)/C=C/c1ccc(/C=C/C(=O)C(C)(C)CN2CCOCC2)cc1`, the TGI in the assay on SK-MEL-5 melanoma was 3.23 µM; in the assay with A498 renal, 3.6 µM; with KM20L2 colon it was 2.89 µM; in the assay with HCC-2998 colon, 3.26 µM; in the assay on OVCAR-4 ovarian, 2.4 µM.
On to `Cc1cc2c(c3nocc13)C(=O)c1ccccc1C2=O`, for which the TGI with M19-MEL melanoma, in the assay on SK-MEL-5 melanoma, in the assay with KM20L2 colon, with HCC-2998 colon, with OVCAR-4 ovarian and in the assay with K-562 leukemia was more than 100 µM in each case.
For the compound `COc1ccc2c3c(c(C(=O)O)oc13)CCC2`, the TGI in the assay on M19-MEL melanoma, in the assay with SK-MEL-5 melanoma, with HCC-2998 colon, with OVCAR-4 ovarian and in the assay on K-562 leukemia was more than 100 µM each time.
Regarding `CC(CN(C)C)S(=O)(=O)c1ccc(-c2cnc(N)c(C(=O)Nc3ccccc3)n2)cc1` (stereo not given), the GI50 was 2.93 µM in the assay on SK-MEL-5 melanoma; 4.56 µM in the assay with DU-145 prostate; 1.58 µM with MCF7 breast; 2.41 µM with A498 renal; 4.51 µM in the assay with MDA-MB-435; 0.973 µM in the assay on HCC-2998 colon. Further, the GI50 with OVCAR-4 ovarian was 6.95 µM; with K-562 leukemia, 3 µM. Further, the TGI in the assay with SK-MEL-5 melanoma is 11.5 µM; in the assay on DU-145 prostate it was more than 49.8 µM; in the assay with MCF7 breast it was 38.8 µM; in the assay on A498 renal it was 9.02 µM; in the assay with MDA-MB-435, 23.8 µM; in the assay with HCC-2998 colon it was 16.6 µM. Also, the TGI with OVCAR-4 ovarian was 54.2 µM; with K-562 leukemia it was 22 µM.
For the compound `CCN(CC)CCC(=O)OC1C(C)=CC(C)C(=O)CC(C(C)CC2CCC(O)C(OC)C2)OC(=O)C2CCCCN2C(=O)C(=O)[C@@]2(O)OC(CCC2C)CC(OC)\C(C)=C/C=C/C=C/C(C)CC(C)C(=O)C1OC` (stereo not given in full), the TGI in the assay on SK-MEL-5 melanoma came to 17.2 µM; in the assay with DU-145 prostate, 19.7 µM; with MCF7 breast, 16.1 µM; in the assay on A498 renal, 17.6 µM; in the assay on MDA-MB-435, 21.2 µM; in the assay on HCC-2998 colon, 21.8 µM. For the same compound, the TGI with OVCAR-4 ovarian is 2.27 µM; with K-562 leukemia, 21.4 µM.
As for `O=C1NC(O)c2ccccc2O1` (stereo not given), the TGI with SK-MEL-5 melanoma, in the assay on DU-145 prostate, with MCF7 breast, with A498 renal, in the assay with MDA-MB-435 and in the assay with HCC-2998 colon was more than 100 µM each time. Further, the TGI with OVCAR-4 ovarian and in the assay on K-562 leukemia was more than 100 µM in each case.
Take `O=P(O)(O)OCC1OC(n2cnc3c(NCc4ccco4)ncnc32)C(O)C1O` (stereo not given): the GI50 was 3.89 µM in the assay on SK-MEL-5 melanoma; 0.57 µM in the assay on DU-145 prostate; 0.776 µM with MCF7 breast; 3.32 µM in the assay on A498 renal; 2.36 µM in the assay with MDA-MB-435; 3.61 µM with HCC-2998 colon. The values for the GI50 with OVCAR-4 ovarian and in the assay on K-562 leukemia were 2.62 µM and 3.01 µM, respectively. The TGI with SK-MEL-5 melanoma was more than 37.4 µM; in the assay with DU-145 prostate it was 2.4 µM; with MCF7 breast it was more than 21.6 µM; in the assay with A498 renal it was 11.7 µM; in the assay with MDA-MB-435, more than 25.7 µM; in the assay on HCC-2998 colon it was more than 30.2 µM. The TGI in the assay with OVCAR-4 ovarian is more than 41 µM; in the assay with K-562 leukemia, more than 57.5 µM.
Regarding `COc1ccc(C(C#N)=C2C=CC(=NO)C=C2)cc1`, the GI50 in the assay with SK-MEL-5 melanoma is 4.34 µM; in the assay on DU-145 prostate, 1.92 µM; with MCF7 breast, 2.88 µM; in the assay with A498 renal, 6.39 µM; in the assay with MDA-MB-435 it was 2.23 µM; in the assay on HCC-2998 colon, 16.1 µM. For the same compound, the figures for the GI50 with OVCAR-4 ovarian and in the assay on K-562 leukemia were 5.85 µM and 7.26 µM, respectively. In addition, the TGI is 17.2 µM in the assay on SK-MEL-5 melanoma; 4.42 µM with DU-145 prostate; 13.8 µM in the assay with MCF7 breast; 25.4 µM in the assay on A498 renal; 5.8 µM with MDA-MB-435; 29.7 µM with HCC-2998 colon. Also, the TGI in the assay on OVCAR-4 ovarian was 19.6 µM; in the assay on K-562 leukemia it was more than 100 µM.
As for `CCNc1cc2oc(=O)cc(C(F)(F)F)c2cc1C`, the TGI in the assay on SK-MEL-5 melanoma, in the assay with DU-145 prostate, in the assay on MCF7 breast, in the assay on A498 renal, in the assay with MDA-MB-435 and in the assay on HCC-2998 colon was more than 100 µM in each case. Also, the TGI with OVCAR-4 ovarian and in the assay on K-562 leukemia was more than 100 µM each time.
Consider `COc1cccc(Sc2ccc([N+](=O)[O-])c3no[n+]([O-])c23)c1`, for which the GI50 was 15.1 µM with SK-MEL-5 melanoma; 11.3 µM with DU-145 prostate; 4.87 µM in the assay on MCF7 breast; 15.7 µM in the assay with A498 renal; 13.4 µM in the assay with MDA-MB-435; 22.3 µM in the assay with HCC-2998 colon. The GI50 with OVCAR-4 ovarian was 10.1 µM; with K-562 leukemia it was 3.66 µM. Besides, the TGI is 29.5 µM in the assay on SK-MEL-5 melanoma; 24.4 µM with DU-145 prostate; 20.6 µM in the assay with MCF7 breast; 34.6 µM with A498 renal; 43.1 µM in the assay on MDA-MB-435; 46.3 µM with HCC-2998 colon. Moreover, the values for the TGI in the assay on OVCAR-4 ovarian and with K-562 leukemia were 27 µM and 13 µM, respectively.
Take `CSC(=Nc1ccccc1Cl)NC(=O)c1ccc(Br)cc1`: the TGI in the assay on M19-MEL melanoma was more than 100 µM; with KM20L2 colon, more than 100 µM; with HCC-2998 colon, more than 100 µM; with OVCAR-4 ovarian, 38.4 µM; in the assay with K-562 leukemia, 45 µM.
As for `NCCOCn1cc(Cc2cccc(OCc3ccccc3)c2)c(=O)[nH]c1=O`, the TGI in the assay on SK-MEL-5 melanoma, in the assay on KM20L2 colon, in the assay with HCC-2998 colon, in the assay with OVCAR-4 ovarian and in the assay on K-562 leukemia was more than 100 µM throughout.
With `CCCN(CCC)CCc1cc(C(C)=O)n(S(=O)(=O)c2ccc(C)cc2)c1`, the TGI with M19-MEL melanoma, in the assay with SK-MEL-5 melanoma, in the assay with A498 renal, in the assay with HCC-2998 colon, with OVCAR-4 ovarian and in the assay with K-562 leukemia was more than 100 µM throughout.
Consider `CN(C)C[C@H]1CCn2c(c(C3=C(c4cn(C)c5ccccc45)C(=O)NC3=O)c3ccccc32)C1`, for which the GI50 is 4.09 µM in the assay with SK-MEL-5 melanoma; 5.46 µM with DU-145 prostate; 4.25 µM in the assay on MCF7 breast; 3.84 µM in the assay with A498 renal; 3.95 µM in the assay with MDA-MB-435; 4.86 µM in the assay on HCC-2998 colon. Besides, the GI50 in the assay on OVCAR-4 ovarian was 3.97 µM; in the assay with K-562 leukemia, 5.29 µM. Further, the TGI with SK-MEL-5 melanoma amounted to 7.71 µM; in the assay with DU-145 prostate, 10.8 µM; in the assay with MCF7 breast, 9.36 µM; with A498 renal, 9.08 µM; in the assay with MDA-MB-435, 7.9 µM; with HCC-2998 colon, 9.16 µM. Besides, the TGI in the assay with OVCAR-4 ovarian was found to be 12.5 µM; in the assay on K-562 leukemia, 10.8 µM.
Regarding `Nc1ncn(C2OC(COP(=O)(O)O)C(O)C2O)c(=O)n1` (stereo not given), the TGI was more than 100 µM in the assay with SK-MEL-5 melanoma; more than 100 µM in the assay on DU-145 prostate; more than 100 µM in the assay with MCF7 breast; more than 100 µM in the assay on A498 renal; more than 73.6 µM in the assay on MDA-MB-435; more than 100 µM in the assay on HCC-2998 colon. The TGI in the assay on OVCAR-4 ovarian and with K-562 leukemia was more than 100 µM throughout.
On to `COC12C=C/C(=C(/C(=O)OCCSc3ccnn3C)C(=O)CCCCCCCCC3(OC)C=C/C(=C(/C(=O)OCCSc4ccnn4C)C(=O)CCCCCCCC1)O3)O2`, for which the GI50 in the assay with SK-MEL-5 melanoma was 0.581 µM; in the assay with DU-145 prostate, 1.31 µM; in the assay with MCF7 breast, 0.927 µM; in the assay with A498 renal, 0.645 µM; in the assay with MDA-MB-435, 0.685 µM; in the assay with HCC-2998 colon, 0.584 µM. The GI50 with OVCAR-4 ovarian was 0.837 µM; in the assay with K-562 leukemia, 1.05 µM. Also, the TGI in the assay with SK-MEL-5 melanoma was 1.09 µM; with DU-145 prostate, more than 32.5 µM; in the assay on MCF7 breast, 15.2 µM; in the assay with A498 renal it was 2.2 µM; with MDA-MB-435 it was 1.57 µM; with HCC-2998 colon it was 1.11 µM. For the same compound, the TGI is 2.5 µM in the assay with OVCAR-4 ovarian and 18 µM in the assay with K-562 leukemia.
Consider `Cc1ccc(-c2c(C#N)[n+](=O)c3cc(F)c(F)cc3n2[O-])cc1`, for which the GI50 in the assay on SK-MEL-5 melanoma is 14.2 µM; in the assay with DU-145 prostate, 14.5 µM; in the assay on MCF7 breast, 5.04 µM; in the assay on A498 renal it was 21.1 µM; in the assay on MDA-MB-435 it was 2.27 µM; with HCC-2998 colon, 10.3 µM. The GI50 in the assay with OVCAR-4 ovarian was 21.4 µM; in the assay on K-562 leukemia, 1.64 µM. For the same compound, the TGI in the assay on SK-MEL-5 melanoma was found to be 28.1 µM; in the assay on DU-145 prostate, 30.9 µM; in the assay with MCF7 breast, 38.1 µM; with A498 renal, 36.5 µM; in the assay with MDA-MB-435 it was 5.95 µM; in the assay with HCC-2998 colon it was 23.5 µM. Also, the TGI was 41.2 µM with OVCAR-4 ovarian and 4.29 µM with K-562 leukemia.
For `Cn1cnc([N+](=O)[O-])c1Sc1nnnn1C`, the TGI is 29.9 µM in the assay on M19-MEL melanoma; 31.6 µM in the assay with SK-MEL-5 melanoma; more than 100 µM in the assay with A498 renal; 51.2 µM with HCC-2998 colon; 30.8 µM in the assay on OVCAR-4 ovarian; 42.3 µM in the assay with K-562 leukemia.
For `CCC[CH2][Sn]([CH2]CCC)([CH2]CCC)[O]C(=O)C(OC(C)=O)c1ccccc1` (stereo not given), the GI50 in the assay on SK-MEL-5 melanoma was 0.147 µM; with A498 renal, 0.154 µM; in the assay with KM20L2 colon, 0.0801 µM; in the assay with HCC-2998 colon it was 0.0999 µM; in the assay with OVCAR-4 ovarian, 0.103 µM; in the assay with K-562 leukemia, 0.109 µM. Further, the TGI in the assay on SK-MEL-5 melanoma is 0.28 µM; in the assay with A498 renal, 0.305 µM; in the assay with KM20L2 colon it was 0.217 µM; in the assay on HCC-2998 colon it was 0.216 µM; in the assay with OVCAR-4 ovarian, 0.221 µM; with K-562 leukemia, 0.349 µM.
